Measured values from ChEMBL document CHEMBL1201862, “PubChem BioAssay data set” (2004).
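Step 1: Grow cells in 96-well plates. Step 2: Expose to compound for 48 hours at 5 concentrations. Step 3: Interpolate endpoints linearly; if unreached, use highest concentration. GI50 marks 50% less growth.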 The source made the active and inactive calls. Cut-off read from the data, not from the text of the source: active = GI50 up to about 1.1 µM and inactive = higher.

Columns and labels:
Test in all cases: inhibition of tumour cell growth, NCI panel, 48 h
SNB-19 = test system: SNB-19
Malme-3M = test system: Malme-3M
SF-268 = test system: SF-268
786-0 = test system: 786-0
UACC-257 = test system: UACC-257
RPMI-8226 = test system: RPMI-8226
SF-295 = test system: SF-295
SNB-75 = test system: SNB-75
KM12 = test system: KM12
ACHN = test system: ACHN
RXF 393 = test system: RXF 393
COLO 205 = test system: COLO 205
OVCAR-4 = test system: OVCAR-4
MOLT-4 = test system: MOLT-4
NCI-H226 = test system: NCI-H226
EKVX = test system: EKVX
UACC-62 = test system: UACC-62
CAKI-1 = test system: CAKI-1

Row | Compound | GI50 (SNB-19) | GI50 (Malme-3M) | GI50 (SF-268) | GI50 (786-0) | GI50 (UACC-257) | GI50 (RPMI-8226) | GI50 (SF-295) | GI50 (SNB-75) | GI50 (KM12) | GI50 (ACHN) | GI50 (RXF 393) | GI50 (COLO 205) | GI50 (OVCAR-4) | GI50 (MOLT-4) | GI50 (NCI-H226) | GI50 (EKVX) | GI50 (UACC-62) | GI50 (CAKI-1)
1 | Sc1nnc(-c2cccnc2)[nH]1 | > 100 µM (inactive) | > 100 µM (inactive) | > 100 µM (inactive) | > 100 µM (inactive) | > 100 µM (inactive) | > 100 µM (inactive) | > 100 µM (inactive) | > 100 µM (inactive) | > 100 µM (inactive) | > 100 µM (inactive) | > 100 µM (inactive) | > 100 µM (inactive) | – | – | – | – | – | –
2 | C=CCCCCCC(O)C(O)C/C=C\C/C=C\CC (configuration not stated) | > 18.8 µM (inactive) | > 18.8 µM (inactive) | > 18.8 µM (inactive) | > 18.8 µM (inactive) | > 18.8 µM (inactive) | > 18.8 µM (inactive) | > 18.8 µM (inactive) | > 18.8 µM (inactive) | > 18.8 µM (inactive) | > 18.8 µM (inactive) | > 18.8 µM (inactive) | > 18.8 µM (inactive) | > 18.8 µM (inactive) | > 14.9 µM (inactive) | > 18.8 µM (inactive) | > 18.8 µM (inactive) | > 18.8 µM (inactive) | > 18.8 µM (inactive)
3 | O=C(O)CCC1(CCC(=O)O)CCCCCCCCC(CCC(=O)O)(CCC(=O)O)C(=O)C1=O | > 100 µM (inactive) | > 100 µM (inactive) | > 100 µM (inactive) | > 100 µM (inactive) | > 100 µM (inactive) | < 0.01 µM (active) | > 100 µM (inactive) | > 100 µM (inactive) | > 100 µM (inactive) | > 100 µM (inactive) | – | > 100 µM (inactive) | > 100 µM (inactive) | – | > 100 µM (inactive) | > 100 µM (inactive) | > 100 µM (inactive) | > 100 µM (inactive)
4 | N#Cc1nc(/C=C/c2cccs2)oc1N | > 100 µM (inactive) | – | > 100 µM (inactive) | > 100 µM (inactive) | > 100 µM (inactive) | 27.8 µM (inactive) | – | > 100 µM (inactive) | > 100 µM (inactive) | 76.9 µM (inactive) | > 100 µM (inactive) | – | – | 45 µM (inactive) | – | 33.7 µM (inactive) | > 100 µM (inactive) | 65.3 µM (inactive)
5 | O=C1c2ccccc2C2=Cc3ccccc3C(O)N12 (configuration not stated) | > 100 µM (inactive) | > 100 µM (inactive) | > 100 µM (inactive) | > 100 µM (inactive) | > 100 µM (inactive) | 55.3 µM (inactive) | > 100 µM (inactive) | 92.5 µM (inactive) | > 100 µM (inactive) | > 100 µM (inactive) | 26.2 µM (inactive) | > 100 µM (inactive) | > 100 µM (inactive) | 34 µM (inactive) | > 100 µM (inactive) | > 100 µM (inactive) | 24.9 µM (inactive) | 22.7 µM (inactive)
6 | COc1cccc2c(SCC(=O)Nc3ccccc3-c3ccccc3NC(=O)CSc3c4ccccc4nc4c(OC)cccc34)c3ccccc3nc12 | > 100 µM (inactive) | – | 45.4 µM (inactive) | > 100 µM (inactive) | – | – | > 100 µM (inactive) | 17.5 µM (inactive) | > 100 µM (inactive) | > 100 µM (inactive) | 57.9 µM (inactive) | > 100 µM (inactive) | > 100 µM (inactive) | > 100 µM (inactive) | > 100 µM (inactive) | 21.7 µM (inactive) | 38.6 µM (inactive) | –
7 | CCCC(N)C(=O)c1ccccc1 (configuration not stated) | > 100 µM (inactive) | > 100 µM (inactive) | > 100 µM (inactive) | > 100 µM (inactive) | > 100 µM (inactive) | > 100 µM (inactive) | > 100 µM (inactive) | > 100 µM (inactive) | > 100 µM (inactive) | > 100 µM (inactive) | > 100 µM (inactive) | > 100 µM (inactive) | > 100 µM (inactive) | – | > 100 µM (inactive) | > 100 µM (inactive) | > 100 µM (inactive) | > 100 µM (inactive)
8 | COC1=C(NC(C)=O)C(=O)c2nc3n(c2C1=O)CCC3 | 26.7 µM (inactive) | 20.4 µM (inactive) | 17.7 µM (inactive) | 19.5 µM (inactive) | 16.6 µM (inactive) | 24.4 µM (inactive) | 20.5 µM (inactive) | 17.6 µM (inactive) | 25.7 µM (inactive) | 19.9 µM (inactive) | 17.7 µM (inactive) | 21.4 µM (inactive) | 16.7 µM (inactive) | 4.06 µM (inactive) | 26.7 µM (inactive) | 19.5 µM (inactive) | 18.2 µM (inactive) | 18.3 µM (inactive)
9 | CC(=O)NC(CCCOC(C)=O)C(=O)NC(CCCOC(C)=O)C(=O)NC(CCCOC(C)=O)C(=O)NC(Cc1ccc([N+](=O)[O-])cc1)C(=O)NCC(=O)OCc1ccccc1 (configuration not stated) | > 100 µM (inactive) | > 100 µM (inactive) | > 100 µM (inactive) | > 100 µM (inactive) | > 100 µM (inactive) | > 100 µM (inactive) | > 100 µM (inactive) | > 100 µM (inactive) | > 100 µM (inactive) | > 100 µM (inactive) | > 100 µM (inactive) | > 100 µM (inactive) | > 100 µM (inactive) | > 100 µM (inactive) | > 100 µM (inactive) | > 100 µM (inactive) | > 100 µM (inactive) | > 100 µM (inactive)
10 | CC1=C(C(=O)Nc2c(C)cccc2C)C(c2ccc3c(c2)OCO3)C(C(=O)Nc2c(C)cccc2C)=C(C)N1 | 15.3 µM (inactive) | 20.2 µM (inactive) | 19.4 µM (inactive) | 13.7 µM (inactive) | 16.6 µM (inactive) | – | 16.5 µM (inactive) | 17.8 µM (inactive) | 15.3 µM (inactive) | 17.5 µM (inactive) | 16.5 µM (inactive) | 21.9 µM (inactive) | 30.3 µM (inactive) | 15 µM (inactive) | 17.5 µM (inactive) | 21.5 µM (inactive) | 2.7 µM (inactive) | 25.1 µM (inactive)
11 | N#CC1Nc2ccccc2[C@@H](O)C1O (some centres not stated) | – | > 100 µM (inactive) | > 100 µM (inactive) | > 100 µM (inactive) | > 100 µM (inactive) | > 100 µM (inactive) | > 100 µM (inactive) | > 100 µM (inactive) | > 100 µM (inactive) | > 100 µM (inactive) | > 100 µM (inactive) | > 100 µM (inactive) | > 100 µM (inactive) | > 100 µM (inactive) | – | > 100 µM (inactive) | > 100 µM (inactive) | > 100 µM (inactive)
12 | [N-]=[N+]=NC1C(Cl)C(=O)NC(=O)N1[C@H]1C[C@H](O)[C@@H](CO)O1 (some centres not stated) | > 100 µM (inactive) | 13.3 µM (inactive) | – | > 100 µM (inactive) | > 100 µM (inactive) | – | > 100 µM (inactive) | > 100 µM (inactive) | > 100 µM (inactive) | > 100 µM (inactive) | > 100 µM (inactive) | > 100 µM (inactive) | > 100 µM (inactive) | > 100 µM (inactive) | – | > 100 µM (inactive) | > 100 µM (inactive) | > 100 µM (inactive)
